In PubChem BioAssay (NCI):
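Protocol summary: plate cells (96-well), add compound at 5 concentrations, incubate 48 h, interpolate endpoints linearly. TGI is the concentration that stops growth completely.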

System: OVCAR-8 ovarian
Assay: inhibition of tumour cell growth, NCI panel, 48 h

Work on `O=C1N=C2Sc3ccc4ccccc4c3N2C1=O` yielded a TGI of 34 µM.

System: PC-3 prostate
Assay: inhibition of tumour cell growth, NCI panel, 48 h

In the case of `N#C/C(=C\c1ccc2ccccc2c1)C(=O)c1ccccc1`, the TGI is reported as > 100 µM.

System: RPMI-8226 leukemia
Assay: inhibition of tumour cell growth, NCI panel, 48 h

`O=C(CC1C(=O)Nc2ccccc2S1=O)Nc1cc(Cl)ccc1Cl` (centres undefined) and `O=C1N=C2Sc3ccc4ccccc4c3N2C1=O` cannot be ordered by TGI: > 100 µM for the first, > 100 µM for the second.

`CN(C)C(=S)/N=c1\sn(C)/c(=N\C(=S)N(C)C)n1C` and `COC(=O)/C(C#N)=C1\N=NNN1c1ccc(OC)cc1` cannot be ordered by TGI: > 100 µM for the first, > 100 µM for the second.

`COC(=O)C1CCCC2(C1)OCCO2` (centres undefined) and `COC(=O)/C(=C/c1ccc(OC)cc1)C(C(=O)O)=C1CCCC1` cannot be ordered by TGI: > 100 µM for the first, > 100 µM for the second.

In the case of `N#C/C(=C\c1ccc2ccccc2c1)C(=O)c1ccccc1`, the TGI is reported as 97.8 µM.

System: RXF 393 renal
Assay: inhibition of tumour cell growth, NCI panel, 48 h

Going from `O=C(CC1C(=O)Nc2ccccc2S1=O)Nc1cc(Cl)ccc1Cl` (centres undefined) to `O=C1N=C2Sc3ccc4ccccc4c3N2C1=O`, the TGI falls from > 100 µM to 37 µM.

`CN(C)C(=S)/N=c1\sn(C)/c(=N\C(=S)N(C)C)n1C` and `COC(=O)/C(C#N)=C1\N=NNN1c1ccc(OC)cc1` cannot be ordered by TGI: > 100 µM for the first, > 100 µM for the second.

`COC(=O)C1CCCC2(C1)OCCO2` (centres undefined) and `COC(=O)/C(=C/c1ccc(OC)cc1)C(C(=O)O)=C1CCCC1` cannot be ordered by TGI: > 100 µM for the first, > 100 µM for the second.

In the case of `N#C/C(=C\c1ccc2ccccc2c1)C(=O)c1ccccc1`, the TGI is reported as > 55.4 µM.

System: RXF-631 renal
Assay: inhibition of tumour cell growth, NCI panel, 48 h

Compared with `O=C(CC1C(=O)Nc2ccccc2S1=O)Nc1cc(Cl)ccc1Cl` (centres undefined), `O=C1N=C2Sc3ccc4ccccc4c3N2C1=O` is lower in TGI: > 100 µM for the first, 51.9 µM for the second.

`CN(C)C(=S)/N=c1\sn(C)/c(=N\C(=S)N(C)C)n1C` and `COC(=O)/C(C#N)=C1\N=NNN1c1ccc(OC)cc1` cannot be ordered by TGI: > 100 µM for the first, > 100 µM for the second.

`COC(=O)C1CCCC2(C1)OCCO2` (centres undefined) and `COC(=O)/C(=C/c1ccc(OC)cc1)C(C(=O)O)=C1CCCC1` cannot be ordered by TGI: > 100 µM for the first, > 100 µM for the second.

System: SF-268 CNS
Assay: inhibition of tumour cell growth, NCI panel, 48 h

Going from `O=C(CC1C(=O)Nc2ccccc2S1=O)Nc1cc(Cl)ccc1Cl` (centres undefined) to `O=C1N=C2Sc3ccc4ccccc4c3N2C1=O`, the TGI falls from > 100 µM to 52.3 µM.

`CN(C)C(=S)/N=c1\sn(C)/c(=N\C(=S)N(C)C)n1C` and `N#C/C(=C\c1ccc2ccccc2c1)C(=O)c1ccccc1` cannot be ordered by TGI: > 100 µM for the first, > 100 µM for the second.

For `COC(=O)C1CCCC2(C1)OCCO2` (centres undefined), the TGI was > 100 µM.

System: SF-295 CNS
Assay: inhibition of tumour cell growth, NCI panel, 48 h

Going from `O=C(CC1C(=O)Nc2ccccc2S1=O)Nc1cc(Cl)ccc1Cl` (centres undefined) to `O=C1N=C2Sc3ccc4ccccc4c3N2C1=O`, the TGI falls from > 100 µM to 36.5 µM.

`CN(C)C(=S)/N=c1\sn(C)/c(=N\C(=S)N(C)C)n1C` and `COC(=O)/C(C#N)=C1\N=NNN1c1ccc(OC)cc1` cannot be ordered by TGI: > 100 µM for the first, > 100 µM for the second.

`COC(=O)C1CCCC2(C1)OCCO2` (centres undefined) and `COC(=O)/C(=C/c1ccc(OC)cc1)C(C(=O)O)=C1CCCC1` cannot be ordered by TGI: > 100 µM for the first, > 100 µM for the second.

In the case of `N#C/C(=C\c1ccc2ccccc2c1)C(=O)c1ccccc1`, the TGI is reported as > 100 µM.

System: SF-539 CNS
Assay: inhibition of tumour cell growth, NCI panel, 48 h

Going from `O=C(CC1C(=O)Nc2ccccc2S1=O)Nc1cc(Cl)ccc1Cl` (centres undefined) to `O=C1N=C2Sc3ccc4ccccc4c3N2C1=O`, the TGI falls from > 100 µM to 36.6 µM.

`CN(C)C(=S)/N=c1\sn(C)/c(=N\C(=S)N(C)C)n1C` and `COC(=O)/C(C#N)=C1\N=NNN1c1ccc(OC)cc1` cannot be ordered by TGI: > 100 µM for the first, > 100 µM for the second.

`COC(=O)C1CCCC2(C1)OCCO2` (centres undefined) and `COC(=O)/C(=C/c1ccc(OC)cc1)C(C(=O)O)=C1CCCC1` cannot be ordered by TGI: > 100 µM for the first, > 100 µM for the second.

For `N#C/C(=C\c1ccc2ccccc2c1)C(=O)c1ccccc1`, the TGI was > 100 µM.

System: SK-MEL-2 melanoma
Assay: inhibition of tumour cell growth, NCI panel, 48 h

Compared with `O=C(CC1C(=O)Nc2ccccc2S1=O)Nc1cc(Cl)ccc1Cl` (centres undefined), `O=C1N=C2Sc3ccc4ccccc4c3N2C1=O` is lower in TGI: > 100 µM for the first, 71.9 µM for the second.

`COC(=O)C1CCCC2(C1)OCCO2` (centres undefined) and `COC(=O)/C(=C/c1ccc(OC)cc1)C(C(=O)O)=C1CCCC1` cannot be ordered by TGI: > 100 µM for the first, > 100 µM for the second.

For `N#C/C(=C\c1ccc2ccccc2c1)C(=O)c1ccccc1`, the TGI was > 100 µM.

System: SK-MEL-28 melanoma
Assay: inhibition of tumour cell growth, NCI panel, 48 h

`O=C(CC1C(=O)Nc2ccccc2S1=O)Nc1cc(Cl)ccc1Cl` (centres undefined) and `COC(=O)C1CCCC2(C1)OCCO2` (centres undefined) cannot be ordered by TGI: > 100 µM for the first, > 100 µM for the second.

In the case of `CN(C)C(=S)/N=c1\sn(C)/c(=N\C(=S)N(C)C)n1C`, the TGI is reported as > 100 µM.
